Assay results from US8927530B2, “Therapeutic combination comprising a PLK1 inhibitor and an antineoplastic agent” (priority 2009, dated 2015).
Read-outs that look alike come from different tables or passages of the source.

Columns and labels:
[1] = test system: AML-PS acute myeloid leukaemia cells; conditions: for Median Survival Time: Control 34
Method: SCID female mice, from Harlan (Italy), were maintained, in agreement with the European Communities Council Directive no. […] 5×10^6 in 0.2 ml AML-PS acute myeloid leukaemia cells were injected intravenously in mice.
Cytarabine was administered by intraperitoneal route at the dose of 75 mg/kg on days 2, 3, 4, 5, 6, 14, 15, 16, 17, 18, 26, 27, 28, 29, 30, 38, 39, 40, 41 42. […] Body weight was measured every 3 days. The effect of the antitumor treatment was evaluated determining the Median Survival Time of treated animals respect to control group.

[2] = test system: HT29 human colon cancer tumors; conditions: for T-C: delay to reach 1 g tumor
Method: Balb, Nu/Nu male mice, from Harlan (Italy), were maintained, in agreement with the European Communities Council Directive no.
(§1) Fragments of HT29 human colon cancer tumors were implanted subcutaneously. The treatment started when tumors were palpable. […] Tumor growth and body weight were measured every 3 days. Tumor growth was assessed by caliper. The two diameters were recorded and the tumor weight was calculated according to the following formula: length (mm)×width^2/2. […] This delay (T-C value) was defined as the difference of time (in days) required for the treatment group (T) and the control group (C) tumors to reach a predetermined size (1 g). Sinergy was identified when T-C of drug combination is >of addition of T-C value of single agents.
(§2) Toxicity was evaluated on the basis of body weigh reduction.

[3] = test system: HT29 human colon cancer tumors; conditions: for T-C: delay to reach 1 g tumor; remark: listed apart in the source
Method: as §1, with “Balb, Nu/Nu male mice, from Harlan (Italy), were maintained, in agreement with the European Communities Council Directive no. […] Fragments” for “Fragments”, “single agents, additivity is identified when T-C value of drug combination is equal to addition of T-C value of single” for “single”
as §2

[4] = test system: HT29 human colon cancer tumors; assay: In vivo activity of combination with bevacizumab, HT29 tumors implanted subcutaneously; conditions: for T-C: delay to reach 1 g tumor
[5] = Compound of formula (I) 45 mg/kg oral, day 2, 3, 4, 6, 7, 8
[6] = male, Balb Nu/Nu, mouse, in vivo, po, 45 mg/kg

Nc1ccn([C@@H]2O[C@H](CO)[C@@H](O)[C@@H]2O)c(=O)n1 [Cytarabine, cytarabine, reference compound]
Median Survival Time ([1]; cytarabine 75 mg/kg intraperitoneal, days 2-6, 14-18, 26-30, 38-42): 66.5

CCc1c2c(nc3ccc(OC(=O)N4CCC(N5CCCCC5)CC4)cc13)-c1cc3c(c(=O)n1C2)COC(=O)[C@]3(O)CC [CPT11, reference compound]
T-C ([2]; CPT11 45 mg/kg intravenous, days 1, 5, 9): 12.3 days

CN1CCN(c2ccc(OC(F)(F)F)c(Nc3ncc4c(n3)-c3c(c(C(N)=O)nn3CCO)CC4)c2)CC1 [Compound of formula (I)]
T-C [2, 5]: 10.3 days
Toxicity [2, 6]: 0/7
T-C [3, 5]: 10.3 days
Toxicity [3, 6]: 0/7
T-C ([4]; Compound of formula (I) 45 mg/kg oral, day 2, 3, 4, 6, 7, 8, 10, 11, 12): 8.5 days
T-C ([4]; Compound of formula (I) 60 mg/kg oral, day 2, 3, 4, 6, 7, 8, 10, 11, 12): 16.8 days
Toxicity [4, 6]: 0/7
Toxicity ([4]; male, Balb Nu/Nu, mouse, in vivo, po, 60 mg/kg): 0/7
Median Survival Time ([1]; Compound of formula (I) 120 mg/kg oral, day 2, 3, 14, 15, 26, 27, 38, 39): 49.5
Toxicity ([1]; female, SCID, mouse, in vivo, po, 120 mg/kg): 0/7

bevacizumab [reference compound]
Toxicity ([4]; Bevacizumab 20 mg/kg, intravenous route (footnote), days 1, 5, 9, 13, body weight reduction): 0/7
T-C ([4]; Bevacizumab 20 mg/kg, intravenous route (footnote), days 1, 5, 9, 13): 4.7 days

O=c1[nH]cc(F)c(=O)[nH]1 [5FU, 5-fluorouracil, reference compound]
T-C ([3]; 5FU 50 mg/kg intravenous, days 1, 5, 9): 11.4 days
